Measured values published in the supplement of paper PMC10307832.

How the values were obtained:
Assay in all cases: relative viability (nuclei count vs DMSO), 5 days (fraction); higher = more cells survive
NCI-H23 = system: NCI-H23
Procedure, shortened: (§1)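 Lung cancer cell lines, seeded in 1536-well plates, were treated the following day by pin tool with a single drug or with five library-drug doses (not always all listed) in √10 steps on top of a fixed anchor-drug dose. Cells were fixed and nuclei stained in one step after 5 days, and nuclei were counted. Relative viability is the nuclei count for treated wells divided by that for vehicle wells, reported as medians of duplicate plates.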

COR-L 105 = system: COR-L 105
Procedure, shortened: as §1

H3255 = system: H3255
Procedure, shortened: as §1

NCI-H520 = system: NCI-H520
Procedure, shortened: as §1

LK-2 = system: LK-2
Procedure, shortened: as §1

NCI-H596 = system: NCI-H596
Procedure, shortened: as §1

NCI-H441 = system: NCI-H441
Procedure, shortened: as §1

PC-3 [JPC-3] = system: PC-3 [JPC-3]
Procedure, shortened: as §1

ChaGo-K-1 = system: ChaGo-K-1
Procedure, shortened: as §1

SW 900 = system: SW 900
Procedure, shortened: as §1

NCI-H1975 = system: NCI-H1975
Procedure, shortened: as §1

NCI-H1734 = system: NCI-H1734
Procedure, shortened: as §1

HCC-366 = system: HCC-366
Procedure, shortened: as §1

LOU-NH91 = system: LOU-NH91
Procedure, shortened: as §1

A-427 = system: A-427
Procedure, shortened: as §1

SK-MES-1 = system: SK-MES-1
Procedure, shortened: as §1

EMC-BAC-2 = system: EMC-BAC-2
Procedure, shortened: as §1

EKVX = system: EKVX
Procedure, shortened: as §1

NCI-H1666 = system: NCI-H1666
Procedure, shortened: as §1

NCI-H1755 = system: NCI-H1755
Procedure, shortened: as §1

NCI-H2170 = system: NCI-H2170
Procedure, shortened: as §1

## O=c1cc(N2CCOCC2)oc2c(-c3cccc4c3sc3ccccc34)cccc12 + O=C(c1cc(Cc2n[nH]c(=O)c3ccccc23)ccc1F)N1CCN(C(=O)C2CC2)CC1 [Olaparib] (partner 8 µM)
NCI-H23; first compound 0.01 µM
  relative viability: 0.399
NCI-H23; first compound 0.03162 µM
  relative viability: 0.335
NCI-H23; first compound 0.3162 µM
  relative viability: 0.344
NCI-H23; first compound 1 µM
  relative viability: 0.343
COR-L 105; first compound 0.01 µM
  relative viability: 0.661
COR-L 105; first compound 0.03162 µM
  relative viability: 0.756
COR-L 105; first compound 0.1 µM
  relative viability: 0.687
COR-L 105; first compound 0.3162 µM
  relative viability: 0.694
COR-L 105; first compound 1 µM
  relative viability: 0.575
H3255; first compound 0.01 µM
  relative viability: 0.544
H3255; first compound 0.03162 µM
  relative viability: 0.517
H3255; first compound 0.1 µM
  relative viability: 0.567
H3255; first compound 0.3162 µM
  relative viability: 0.512
H3255; first compound 1 µM
  relative viability: 0.53
NCI-H520; first compound 0.01 µM
  relative viability: 0.42
NCI-H520; first compound 0.03162 µM
  relative viability: 0.406
NCI-H520; first compound 0.1 µM
  relative viability: 0.366
NCI-H520; first compound 0.3162 µM
  relative viability: 0.351
NCI-H520; first compound 1 µM
  relative viability: 0.338
LK-2; first compound 0.01 µM
  relative viability: 0.802
LK-2; first compound 0.03162 µM
  relative viability: 0.554
LK-2; first compound 0.1 µM
  relative viability: 0.847
LK-2; first compound 0.3162 µM
  relative viability: 0.722
LK-2; first compound 1 µM
  relative viability: 0.737
NCI-H596; first compound 0.01 µM
  relative viability: 0.675
NCI-H596; first compound 0.03162 µM
  relative viability: 0.628
NCI-H596; first compound 0.1 µM
  relative viability: 0.735
NCI-H596; first compound 0.3162 µM
  relative viability: 0.683
NCI-H596; first compound 1 µM
  relative viability: 0.694
NCI-H441; first compound 0.01 µM
  relative viability: 0.485
NCI-H441; first compound 0.03162 µM
  relative viability: 0.48
NCI-H441; first compound 0.1 µM
  relative viability: 0.643
NCI-H441; first compound 0.3162 µM
  relative viability: 0.631
NCI-H441; first compound 1 µM
  relative viability: 0.585
PC-3 [JPC-3]; first compound 0.01 µM
  relative viability: 1.07
PC-3 [JPC-3]; first compound 0.03162 µM
  relative viability: 1.11
PC-3 [JPC-3]; first compound 0.1 µM
  relative viability: 1.15
PC-3 [JPC-3]; first compound 0.3162 µM
  relative viability: 1.14
PC-3 [JPC-3]; first compound 1 µM
  relative viability: 1.09
ChaGo-K-1; first compound 0.01 µM
  relative viability: 0.421
ChaGo-K-1; first compound 0.03162 µM
  relative viability: 0.439
ChaGo-K-1; first compound 0.1 µM
  relative viability: 0.434
ChaGo-K-1; first compound 0.3162 µM
  relative viability: 0.447
ChaGo-K-1; first compound 1 µM
  relative viability: 0.447
SW 900; first compound 0.03162 µM
  relative viability: 0.918
SW 900; first compound 0.1 µM
  relative viability: 0.794
SW 900; first compound 0.3162 µM
  relative viability: 0.719
SW 900; first compound 1 µM
  relative viability: 0.572
NCI-H1975; first compound 0.01 µM
  relative viability: 0.834
NCI-H1975; first compound 0.03162 µM
  relative viability: 0.785
NCI-H1975; first compound 0.1 µM
  relative viability: 0.915
NCI-H1975; first compound 0.3162 µM
  relative viability: 0.82
NCI-H1975; first compound 1 µM
  relative viability: 0.809
NCI-H1734; first compound 0.01 µM
  relative viability: 0.686
NCI-H1734; first compound 0.03162 µM
  relative viability: 0.638
NCI-H1734; first compound 0.1 µM
  relative viability: 0.685
NCI-H1734; first compound 0.3162 µM
  relative viability: 0.638
NCI-H1734; first compound 1 µM
  relative viability: 0.652
HCC-366; first compound 0.01 µM
  relative viability: 0.368
HCC-366; first compound 0.03162 µM
  relative viability: 0.319
HCC-366; first compound 0.1 µM
  relative viability: 0.435
HCC-366; first compound 0.3162 µM
  relative viability: 0.346
HCC-366; first compound 1 µM
  relative viability: 0.386
LOU-NH91; first compound 0.01 µM
  relative viability: 0.855
LOU-NH91; first compound 0.03162 µM
  relative viability: 0.916
LOU-NH91; first compound 0.1 µM
  relative viability: 0.96
LOU-NH91; first compound 0.3162 µM
  relative viability: 0.921
LOU-NH91; first compound 1 µM
  relative viability: 0.884
A-427; first compound 0.01 µM
  relative viability: 0.742
A-427; first compound 0.03162 µM
  relative viability: 0.706
A-427; first compound 0.1 µM
  relative viability: 0.737
A-427; first compound 0.3162 µM
  relative viability: 0.731
A-427; first compound 1 µM
  relative viability: 0.733
SK-MES-1; first compound 0.01 µM
  relative viability: 0.68
SK-MES-1; first compound 0.03162 µM
  relative viability: 0.71
SK-MES-1; first compound 0.1 µM
  relative viability: 0.808
SK-MES-1; first compound 0.3162 µM
  relative viability: 0.598
SK-MES-1; first compound 1 µM
  relative viability: 0.634
EMC-BAC-2; first compound 0.01 µM
  relative viability: 0.486
EMC-BAC-2; first compound 0.03162 µM
  relative viability: 0.507
EMC-BAC-2; first compound 0.1 µM
  relative viability: 0.548
EMC-BAC-2; first compound 0.3162 µM
  relative viability: 0.412
EMC-BAC-2; first compound 1 µM
  relative viability: 0.489
EKVX; first compound 0.01 µM
  relative viability: 0.769
EKVX; first compound 0.03162 µM
  relative viability: 0.807
EKVX; first compound 0.1 µM
  relative viability: 1.03
EKVX; first compound 0.3162 µM
  relative viability: 0.851
EKVX; first compound 1 µM
  relative viability: 0.891
NCI-H1666; first compound 0.01 µM
  relative viability: 0.753
NCI-H1666; first compound 0.03162 µM
  relative viability: 0.738
NCI-H1666; first compound 0.1 µM
  relative viability: 0.777
NCI-H1666; first compound 0.3162 µM
  relative viability: 0.684
NCI-H1666; first compound 1 µM
  relative viability: 0.692
NCI-H1755; first compound 0.01 µM
  relative viability: 0.896
NCI-H1755; first compound 0.03162 µM
  relative viability: 0.891
NCI-H1755; first compound 0.1 µM
  relative viability: 0.869
NCI-H1755; first compound 0.3162 µM
  relative viability: 0.848
NCI-H1755; first compound 1 µM
  relative viability: 0.883
NCI-H2170; first compound 0.01 µM
  relative viability: 0.673
NCI-H2170; first compound 0.03162 µM
  relative viability: 0.589
NCI-H2170; first compound 0.1 µM
  relative viability: 0.526
NCI-H2170; first compound 0.3162 µM
  relative viability: 0.53
NCI-H2170; first compound 1 µM
  relative viability: 0.598
